The values that follow come from patent US9096615B2, “Bridged bicyclic amino thiazine dioxide compounds as inhibitors of beta-secretase and methods of use thereof” (AMGEN INC., priority 2013, dated 2015).

Where two headings read alike, the source gives them in different places.

The target in one assay is BACE1 (Homo sapiens, UniProt P56817). Kind of assay: In vitro enzymatic BACE FRET assay. Type of assay: biochemical. Put shortly: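 Fluorescence (excitation 488 nm, […]) from cleavage of quenched peptide substrate (50 nM), reaction run 1 h after 1 h enzyme–inhibitor pre-incubation, then neutralised with Tris. Conditions: 0.2 nM enzyme, pH 4.2 acetate 0.05 M, 10% DMSO final, 100 uM genapol.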
Sequence of BACE1 (P56817 46-501, species assumed): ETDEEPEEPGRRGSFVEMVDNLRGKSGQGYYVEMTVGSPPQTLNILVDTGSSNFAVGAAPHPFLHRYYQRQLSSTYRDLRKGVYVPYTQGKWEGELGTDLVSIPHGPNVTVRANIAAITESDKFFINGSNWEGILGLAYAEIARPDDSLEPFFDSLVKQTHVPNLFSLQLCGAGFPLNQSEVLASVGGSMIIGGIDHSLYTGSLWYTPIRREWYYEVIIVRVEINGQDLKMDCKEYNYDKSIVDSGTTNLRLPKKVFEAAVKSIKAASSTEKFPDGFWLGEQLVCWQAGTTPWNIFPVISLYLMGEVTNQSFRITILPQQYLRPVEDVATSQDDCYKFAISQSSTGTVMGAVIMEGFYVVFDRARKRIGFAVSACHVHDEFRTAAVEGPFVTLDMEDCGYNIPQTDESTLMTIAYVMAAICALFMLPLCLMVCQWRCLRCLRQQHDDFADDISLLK

For assay [1], the system named is Aβ40 in conditioned medium of cells stably expressing Amyloid Precursor Protein (APP). Kind of assay: In vitro BACE cell-based assay (HEK cell assay, Aβ40 sandwich ELISA). The conditions noted are these: Homo sapiens, HEK293. The essentials: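 IC50 was derived from percent-of-control Aβ40 against concentration, with Aβ40 quantified by time-resolved fluorescence ELISA (pAb40/6E10-biotin, 4 °C incubations). Supernatants were sampled after 24 h of compound exposure (10 points, starting 100 or 10 μM, 0.1% DMSO) of cells stably expressing APP.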
A general note: ELISA stands for enzyme-linked immunosorbent assay.

In a further assay the target is T1, Cathepsin D (Cat D) (Homo sapiens, UniProt P07339).
T1 construct: made in house; host or cells: CHO cells
T1 sequence (P07339 65-412, species assumed): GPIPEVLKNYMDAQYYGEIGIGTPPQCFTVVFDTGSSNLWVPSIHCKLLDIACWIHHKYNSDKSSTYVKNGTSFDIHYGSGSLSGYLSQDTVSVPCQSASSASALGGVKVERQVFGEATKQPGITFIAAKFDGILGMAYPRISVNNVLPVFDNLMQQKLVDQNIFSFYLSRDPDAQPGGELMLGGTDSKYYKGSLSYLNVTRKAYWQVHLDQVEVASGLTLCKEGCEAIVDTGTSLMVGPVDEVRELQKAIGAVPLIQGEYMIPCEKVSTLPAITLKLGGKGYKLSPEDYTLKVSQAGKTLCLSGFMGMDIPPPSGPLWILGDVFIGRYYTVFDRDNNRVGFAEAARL
Kind of assay: In vitro enzymatic Cathepsin D (Cat D) FRET assay. Type of assay: biochemical. Put shortly:
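Fluorescence (500 nm excitation, 580 nm emission) was measured after Tris quench of a 1 h cleavage of 20 nM quenched peptide substrate. Before that, 9 nM CHO-expressed human Cat D sat with compound for 1 h at pH 3.5 (0.05 M citrate, 5 mM CHAPS, 10% DMSO final).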

[2] abbreviates: average IC50, read-out: BACE1 Enzyme assay IC50.
The mark [3] stands for this setting: average IC50, read-out: BACE1 cell assay IC50.
Setting [4] is: average IC50, first procedure, read-out: CatD IC50.
Setting [5] is: read-out: BACE1 FRET assay IC50.
[6] abbreviates: Aβ40, 24 h incubation, read-out: HEK cell assay IC50.

For the compound `C[C@]12CC[C@](C)(C(N)=N[C@]1(C)c1cc(Nc3ncc(F)c4cc(Cl)cnc34)ccc1F)S2(=O)=O` [Example 50, N-(3-((1S,2R,5R)-4-amino-1,2,5-trimethyl-8,8-dioxido-8-thia-3-azabicyclo[3.2.1]oct-3-en-2-yl)-4-fluorophenyl)-3-chloro-5-fluoro-1,7-naphthyridin-8-amine], the half-maximal inhibitory concentration (IC50) at BACE1 (setting [2]) was determined as 0.004 µM; in assay [1] (setting [3]), 0.28 µM; at Cathepsin D (Cat D) (setting [4]), 12 µM.

As for `C[C@]1(c2cc(NC(=O)c3ncc(C(F)(F)F)cc3Cl)ccc2F)N=C(N)[C@@]2(CF)CC[C@@H]1S2(=O)=O` [Example 108, N-(3-((1S,2R,5R)-4-amino-5-(fluoromethyl)-2-methyl-8,8-dioxido-8-thia-3-azabicyclo[3.2.1]oct-3-en-2-yl)-4-fluorophenyl)-3-chloro-5-(trifluoromethyl)-2-pyridinecarboxamide], the results for the half-maximal inhibitory concentration (IC50) (on BACE1 (setting [2]); in assay [1] (setting [3]); on Cathepsin D (Cat D) (setting [4])) were 0.008 µM, 0.007 µM and more than 400 µM, respectively.

`Cc1cc(OC(F)F)cnc1C(=O)Nc1ccc(F)c([C@@]2(C)N=C(N)[C@@]3(C)CCC[C@]2(F)S3(=O)=O)c1` [Example 9, N-(3-((1S,2R,5R)-4-Amino-1-fluoro-2,5-dimethyl-9,9-dioxido-9-thia-3-azabicyclo[3.3.1]non-3-en-2-yl)-4-fluorophenyl)-5-(difluoromethoxy)-3-methylpicolinamide]: the IC50 at BACE1 (setting [5]) came to 0.007 µM; in assay [1] (setting [6]), 0.149 µM; at Cathepsin D (Cat D) (read-out: CatD IC50) it was 19 µM.

As to `C[C@]1(c2cc(NC(=O)c3ccc(C(F)(F)F)cc3F)ccc2F)N=C(N)[C@@]2(C)CC[C@@H]1S2(=O)=O` [Example 121, N-(3-((1S,2R,5R)-4-amino-2,5-dimethyl-8,8-dioxido-8-thia-3-azabicyclo[3.2.1]oct-3-en-2-yl)-4-fluorophenyl)-2-fluoro-4-(trifluoromethyl)benzamide], the half-maximal inhibitory concentration (IC50) was 0.41 µM at BACE1 (setting [2]), 0.15 µM in assay [1] (setting [3]) and more than 400 µM at Cathepsin D (Cat D) (setting [4]).

Regarding `Cc1cc(C(F)(F)F)cnc1C(=O)Nc1ccc(F)c([C@@]2(CF)N=C(N)[C@@]3(C)CC[C@@H]2S3(=O)=O)c1` (single isomer, unassigned) [Example 114], the figures for the IC50 (on BACE1 (setting [2]); in assay [1] (setting [3]); on Cathepsin D (Cat D) (setting [4])) were 0.061 µM, 0.082 µM and 3460 µM, respectively.

Regarding `Cc1cc(OC(F)F)cnc1C(=O)Nc1ccc(F)c([C@@]2(C)N=C(N)[C@@]3(C)CC[C@@H]2S3(=O)=O)c1` [Example 23, N-(3-((1S,2R,5R)-4-Amino-2,5-dimethyl-8,8-dioxido-8-thia-3-azabicyclo[3.2.1]oct-3-en-2-yl)-4-fluorophenyl)-5-(difluoromethoxy)-3-methylpicolinamide], the IC50 at BACE1 (setting [5]) came to 0.002 µM; in assay [1] (setting [6]), 0.001 µM; at Cathepsin D (Cat D) (read-out: CatD IC50) it was 117 µM.

In the case of `Cc1cc(Cl)cnc1C(=O)Nc1ccc(F)c([C@@]2(C)N=C(N)[C@H]3CC[C@@H]2S3(=O)=O)c1` [Example 33, N-(3-((1S,2R,5R)-4-amino-2-methyl-8,8-dioxido-8-thia-3-azabicyclo[3.2.1]oct-3-en-2-yl)-4-fluorophenyl)-5-chloro-3-methyl-2-pyridinecarboxamide], the figures for the concentration for half-maximal inhibition (IC50) (at BACE1 (setting [5]); in assay [1] (setting [6]); on Cathepsin D (Cat D) (read-out: CatD IC50)) were 8.46 µM, more than 15.6 µM and 1540 µM, respectively.

Consider `COc1cnc(C(=O)Nc2ccc(F)c([C@@]3(C)N=C(N)[C@@]4(C)CCC[C@]3(C)S4(=O)=O)c2)cn1` [Example 15, N-(3-((1S,2R,5R)-4-Amino-1,2,5-trimethyl-9,9-dioxido-9-thia-3-azabicyclo[3.3.1]non-3-en-2-yl)-4-fluorophenyl)-5-methoxypyrazine-2-carboxamide], for which the values for the IC50 (at BACE1 (setting [5]); in assay [1] (setting [6]); on Cathepsin D (Cat D) (read-out: CatD IC50)) were 0.049 µM, 0.027 µM and 138 µM, respectively.

With `CC(C)COc1cnc2c(Nc3ccc(F)c([C@@]4(C)N=C(N)[C@@]5(C)CC[C@@H]4S5(=O)=O)c3)nccc2n1` [Example 143, N-(3-((1S,2R,5R)-4-amino-2,5-dimethyl-8,8-dioxido-8-thia-3-azabicyclo[3.2.1]oct-3-en-2-yl)-4-fluorophenyl)-2-(2-methylpropoxy)pyrido[3,4-b]pyrazin-5-amine], the IC50 on BACE1 (setting [2]) was determined as 0.009 µM; in assay [1] (setting [3]) it was 0.164 µM; on Cathepsin D (Cat D) (setting [4]), 150 µM.

As to `Cc1c(C(=O)Nc2ccc(F)c([C@@]3(C)N=C(N)[C@]4(C)CC[C@H]3S4(=O)=O)c2)nc2ccc(Cl)cn12` [Example 28, N-(3-((1R,2R,5S)-4-Amino-2,5-dimethyl-8,8-dioxido-8-thia-3-azabicyclo[3.2.1]oct-3-en-2-yl)-4-fluorophenyl)-6-chloro-3-methylimidazo[1,2-a]pyridine-2-carboxamide], the IC50 on BACE1 (setting [5]) was 0.07 µM; in assay [1] (setting [6]), 0.01 µM; on Cathepsin D (Cat D) (read-out: Cat D IC50 value), more than 400 µM; at Cathepsin D (Cat D) (read-out: CatD IC50), more than 400 µM.

In the case of `COc1cnc(C(=O)Nc2ccc(F)c([C@@]3(C)N=C(N)[C@@]4(C)CC[C@@H]3S4(=O)=O)c2)cn1` [Example 37, N-(3-((1S,2R,5R)-4-amino-2,5-dimethyl-8,8-dioxido-8-thia-3-azabicyclo[3.2.1]oct-3-en-2-yl)-4-fluorophenyl)-5-methoxy-2-pyrazinecarboxamide], the IC50 at BACE1 (setting [5]) was 0.004 µM; in assay [1] (setting [6]), 0.001 µM; on Cathepsin D (Cat D) (read-out: CatD IC50), 1170 µM.

For `C[C@]1(c2cc(Nc3nccc4nc(OCC5CC5)cnc34)ccc2F)N=C(N)[C@@]2(C)CC[C@@H]1S2(=O)=O` [Example 68, N-(3-((1S,2R,5R)-4-amino-2,5-dimethyl-8,8-dioxido-8-thia-3-azabicyclo[3.2.1]oct-3-en-2-yl)-4-fluorophenyl)-2-(cyclopropylmethoxy)pyrido[3,4-b]pyrazin-5-amine], the results for the concentration for half-maximal inhibition (IC50) (on BACE1 (setting [2]); in assay [1] (setting [3]); on Cathepsin D (Cat D) (setting [4])) were 0.005 µM, 0.033 µM and more than 400 µM, respectively.

For the compound `C[C@]1(c2cc(Nc3nccc4[nH]c(=O)cnc34)ccc2F)N=C(N)[C@@]2(CF)CC[C@@H]1S2(=O)=O` [Example 148, 5-((3-((1S,2R,5R)-4-amino-5-(fluoromethyl)-2-methyl-8,8-dioxido-8-thia-3-azabicyclo[3.2.1]oct-3-en-2-yl)-4-fluorophenyl)amino)pyrido[3,4-b]pyrazin-2(1H)-one], the values for the 50% inhibitory concentration (IC50) (on BACE1 (setting [2]); in assay [1] (setting [3]); on Cathepsin D (Cat D) (setting [4])) were 0.016 µM, 0.019 µM and 217 µM, respectively.

Turning to `C[C@]12CC[C@H]([C@@](C)(c3cc(NC(=O)c4c(F)cc(Br)cc4F)ccc3F)N=C1N)S2(=O)=O` [Example 126, N-(3-((1R,2R,5S)-4-amino-2,5-dimethyl-8,8-dioxido-8-thia-3-azabicyclo[3.2.1]oct-3-en-2-yl)-4-fluorophenyl)-4-bromo-2,6-difluorobenzamide], the half-inhibitory concentration (IC50) on BACE1 (setting [2]) was determined as 0.315 µM; in assay [1] (setting [3]), 0.073 µM; on Cathepsin D (Cat D) (setting [4]) it was 2200 µM.

As for `Cc1cc(C(F)(F)F)cnc1C(=O)Nc1ccc(F)c([C@@]2(C)N=C(N)[C@]3(C)CC[C@@]2(C)S3(=O)=O)c1` [Example 49, N-(3-((1R,2R,5S)-4-amino-1,2,5-trimethyl-8,8-dioxido-8-thia-3-azabicyclo[3.2.1]oct-3-en-2-yl)-4-fluorophenyl)-3-methyl-5-(trifluoromethyl)-2-pyridinecarboxamide], the half-maximal inhibitory concentration (IC50) at BACE1 (setting [2]) amounted to 0.011 µM; in assay [1] (setting [3]) it was 0.004 µM; on Cathepsin D (Cat D) (setting [4]), 66.6 µM.

Turning to `COc1cnc2c(Nc3ccc(F)c([C@@]4(C)N=C(N)[C@@]5(C)CC[C@@H]4S5(=O)=O)c3)ncc(F)c2c1` [Example 36, N-(3-((1S,2R,5R)-4-amino-2,5-dimethyl-8,8-dioxido-8-thia-3-azabicyclo[3.2.1]oct-3-en-2-yl)-4-fluorophenyl)-5-fluoro-3-methoxy-1,7-naphthyridin-8-amine], the figures for the IC50 (on BACE1 (setting [5]); in assay [1] (setting [6]); on Cathepsin D (Cat D) (read-out: CatD IC50)) were 0.002 µM, 0.006 µM and 5490 µM, respectively.

With `C[C@]12CC[C@H]([C@@](C)(c3cc(Nc4nccc5nc(OCC6CC6)cnc45)ccc3F)N=C1N)S2(=O)=O` [Example 67, N-(3-((1R,2R,5S)-4-amino-2,5-dimethyl-8,8-dioxido-8-thia-3-azabicyclo[3.2.1]oct-3-en-2-yl)-4-fluorophenyl)-2-(cyclopropylmethoxy)pyrido[3,4-b]pyrazin-5-amine], the IC50 on BACE1 (setting [2]) is 0.156 µM; in assay [1] (setting [3]), 0.522 µM; at Cathepsin D (Cat D) (setting [4]) it was 99.3 µM.

`Cc1cc(OC(F)F)cnc1C(=O)Nc1ccc(F)c([C@@]2(C)N=C(N)[C@@]3(C)CCC[C@@H]2S3(=O)=O)c1` [Example 5, N-(3-((1S,2R,5R)-4-Amino-2,5-dimethyl-9,9-dioxido-9-thia-3-azabicyclo[3.3.1]non-3-en-2-yl)-4-fluorophenyl)-5-(difluoromethoxy)-3-methylpicolinamide]: the results for the IC50 (on BACE1 (setting [5]); in assay [1] (setting [6]); at Cathepsin D (Cat D) (read-out: CatD IC50)) were 0.003 µM, 0.004 µM and 105 µM, respectively.

For the compound `Cc1cc(OC(F)F)cnc1C(=O)Nc1ccc(F)c([C@@]2(C)N=C(N)[C@]3(C)CCC[C@@]2(F)S3(=O)=O)c1` [Example 10, N-(3-((1R,2R,5S)-4-Amino-1-fluoro-2,5-dimethyl-9,9-dioxido-9-thia-3-azabicyclo[3.3.1]non-3-en-2-yl)-4-fluorophenyl)-5-(difluoromethoxy)-3-methylpicolinamide], the half-inhibitory concentration (IC50) on BACE1 (setting [5]) was determined as 0.009 µM; in assay [1] (setting [6]), 0.035 µM; on Cathepsin D (Cat D) (read-out: CatD IC50), 8.75 µM.

In general, IC50 refers to the point on the concentration scale where inhibition reaches its midpoint.
